Columns and labels:
[1] = molecular target: T1, glucocorticoid receptors (endogenous) in SW1353/MMTV-5 cells (Homo sapiens, UniProt P04150); experiment: GR functional assay using SW1353/MMTV-5 cells (MMTV-GRE luciferase reporter); type: cell-based
T1 construct: contains endogenous glucocorticoid receptors; endogenous in cells; host or cells: SW1353/MMTV-5 (human chondrosarcoma, stably transfected with pMAMneo-Luc reporter)
T1 sequence (P04150 1-777): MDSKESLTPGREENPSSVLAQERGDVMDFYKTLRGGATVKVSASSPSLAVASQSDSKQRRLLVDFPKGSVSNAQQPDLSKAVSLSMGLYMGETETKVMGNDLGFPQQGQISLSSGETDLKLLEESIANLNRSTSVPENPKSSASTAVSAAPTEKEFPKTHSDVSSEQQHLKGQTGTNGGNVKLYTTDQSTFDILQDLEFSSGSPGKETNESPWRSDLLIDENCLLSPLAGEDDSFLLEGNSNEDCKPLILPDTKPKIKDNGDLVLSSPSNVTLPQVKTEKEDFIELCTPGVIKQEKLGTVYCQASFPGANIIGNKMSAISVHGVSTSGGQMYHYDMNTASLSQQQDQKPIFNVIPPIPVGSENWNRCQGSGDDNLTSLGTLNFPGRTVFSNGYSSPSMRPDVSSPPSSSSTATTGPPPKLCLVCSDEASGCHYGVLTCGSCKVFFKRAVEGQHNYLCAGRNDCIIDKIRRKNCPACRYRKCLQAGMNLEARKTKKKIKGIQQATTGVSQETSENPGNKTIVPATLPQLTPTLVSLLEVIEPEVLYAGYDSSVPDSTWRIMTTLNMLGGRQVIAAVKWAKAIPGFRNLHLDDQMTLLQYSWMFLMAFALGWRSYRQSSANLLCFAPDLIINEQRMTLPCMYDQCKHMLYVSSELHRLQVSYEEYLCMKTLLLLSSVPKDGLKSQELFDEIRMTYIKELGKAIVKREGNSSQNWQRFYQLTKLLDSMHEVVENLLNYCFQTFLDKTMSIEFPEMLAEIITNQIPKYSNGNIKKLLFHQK
Method: SW1353/MMTV-5 is an adherent human chondrosarcoma cell line that contains endogenous glucocorticoid receptors. It was transacted with a plasmid (pMAMneo-Luc) encoding firefly luciferase located behind a glucocorticoid-responsive element (GRE) derived from a viral promoter (long terminal repeat of mouse mammary tumor virus). A stable cell line SW1353/MMTV-5 was selected with geneticin, which was required to maintain this plasmid.
SW1353/MMTV-5 cells were distributed in 96-well plates and incubated in medium (without geneticin) for 24 hrs.

[2] = molecular target: T2, Human Recombinant Glucocorticoid Receptor (Homo sapiens, UniProt P04150); experiment: Glucocorticoid receptor binding displacement assay with 3H-dexamethasone; conditions: displacement of 2.5 nM 3H-dexamethasone, 2.5 hrs at 4° C.; Ki from IC50 by Cheng-Prusoff; read-out: GR Binding Ki
T2 construct: This GR was a full-length steroid hormone receptor; host or cells: recombinant baculovirus-infected insect cells
T2 sequence (P04150 1-777): T1 sequence (P04150 1-777)
Method: Binding protocol: Compounds were tested in a binding displacement assay using human recombinant glucocorticoid receptor with ^3H-dexamethasone as the ligand. The source of the receptor was recombinant baculovirus-infected insect cells. This GR was a full-length steroid hormone receptor likely to be associated with heat-shock and other endogenous proteins.
For the IC50 determinations, test compounds were tested at 6 concentrations in duplicate. Test compounds were diluted from 10 mM stock in 100% DMSO. The tested solutions were prepared at 2× final assay concentration in 2% DMSO/assay buffer.
All reagents and the assay plate were kept on ice during the addition of reagents. The reagents were added to wells of a v-bottomed polypropylene plate in the following order: 25 μl of 10 nM 3H-dexamethasone solution, 50 μl of TB/NSB/compound solution and 25 μl of 2 nM GR solution. After the additions, the incubation mixture was mixed and incubated for 2.5 hrs at 4° C.
Alter 2.5 hrs incubation, unbound counts were removed with dextran coated charcoal (DCC) as follows: 15 μl of DCC solution (10% DCC in assay buffer) was added to all wells and mixed (total volume 115 μl). The plate was centrifuged at 4000 rpm for 10 minutes at 4° C. 75 μl of the supernatants was carefully pipetted into an optiplate. 150 μl of scintillation cocktail were added (Microscint-40, Perkin Elmer). The plate was vigorously shaken for approx. 10 minutes and counted on Topcount.
The IC50 values were converted to Ki (the inhibition constant) using the Cheng-Prusoff equation.
Reagents: Assay buffer: 10 mM potassium phosphate buffer pH 7.6 containing 5 mM DTT, 10 mM sodium molybdate, 100 μM EDTA and 0.1% BSA.

| Compound | Ki [1] [nM] | Ki [2] [nM] |
| --- | --- | --- |
| O=c1[nH]c(=O)c(Cc2c(Cl)cccc2Cl)c([C@H]2CC[C@H](c3ccccc3)CC2)[nH]1 [Compound 3e] | 50 to 100 | 5 to 10 |
| O=c1[nH]c([C@H]2CC[C@H](c3ccccc3)CC2)c(Cc2cccc(Cl)c2Cl)c(=O)n1CCCN1CCOCC1 [Compound 13c] | > 100 | > 10 |
| O=c1[nH]c(=O)c(Cc2ccccc2Cl)c([C@H]2CC[C@H](c3ccccc3)CC2)[nH]1 [Compound 3c] | < 50 | < 5 |
| O=c1[nH]c(=O)c(Cc2ccc(Cl)cc2Cl)c([C@H]2CC[C@H](c3ccccc3)CC2)[nH]1 [Compound 3f] | < 50 | 5 to 10 |
| O=c1[nH]c(=O)c(Cc2ccc(F)c(F)c2)c([C@H]2CC[C@H](c3ccccc3)CC2)[nH]1 [Compound 3w] | 50 to 100 | > 10 |
| Nc1cccc(Cc2c(=O)[nH]c(=O)[nH]c2[C@H]2CC[C@H](c3ccccc3)CC2)n1 [Compound 3cc] | > 100 | > 10 |
| CCc1ccccc1Cc1c(=O)[nH]c(=O)[nH]c1[C@H]1CC[C@H](c2ccccc2)CC1 [Compound 3s] | 50 to 100 | 5 to 10 |
| O=c1[nH]c(=O)c(Cc2ccc(F)cc2F)c([C@H]2CC[C@H](c3ccccc3)CC2)[nH]1 [Compound 3y] | 50 to 100 | 5 to 10 |
| O=c1[nH]c(=O)c(Cc2nccs2)c([C@H]2CC[C@H](c3ccccc3)CC2)[nH]1 [Compound 3o] | > 100 | > 10 |
| Cc1csc(Cc2c(=O)[nH]c(=O)[nH]c2[C@H]2CC[C@H](c3ccccc3)CC2)n1 [Compound 3t] | > 100 | > 10 |
| O=c1[nH]c(=O)c(Cc2ccc(F)cc2Cl)c([C@H]2CC[C@H](c3ccccc3)CC2)[nH]1 [Compound 3x] | < 50 | > 10 |
| Cn1c(=O)[nH]c([C@H]2CC[C@H](c3ccccc3)CC2)c(Cc2cccc(C(F)(F)F)c2)c1=O [Compound 13d, (E)-3-Methyl-6-(4-phenyl-cyclohexyl)-5-(3-trifluoromethyl-benzyl)-1H-pyrimidine-2,4-dione] | > 100 | 5 to 10 |
| Cc1cc(Cc2c(=O)[nH]c(=O)[nH]c2[C@H]2CC[C@H](c3ccccc3)CC2)ccn1 [Compound 3n] | > 100 | > 10 |
| CN(C)c1cccc(Cc2c(=O)[nH]c(=O)[nH]c2[C@H]2CC[C@H](c3ccccc3)CC2)n1 [Compound 3v] | < 50 | 5 to 10 |
| Cn1c(=O)[nH]c([C@H]2CC[C@H](c3ccccc3)CC2)c(Cc2ccccc2)c1=O [Compound 13h] | 50 to 100 | > 10 |
| Cc1cccc(Cc2c(=O)[nH]c(=O)[nH]c2[C@H]2CC[C@H](c3ccccc3)CC2)n1 [Compound 3j] | 50 to 100 | > 10 |
| O=c1[nH]c([C@H]2CC[C@H](c3ccccc3)CC2)c(Cc2cccc(C(F)(F)F)c2)c(=O)n1CCO [Compound 13f, (E)-3-(2-Hydroxy-ethyl)-6-(4-phenyl-cyclohexyl)-5-(3-trifluoromethyl-benzyl)-1H-pyrimidine-2,4-dione] | > 100 | > 10 |
| Cc1ccccc1Cc1c(C2=CCC(c3ccccc3)CC2)[nH]c(=O)[nH]c1=O (stereo not shown) [Compound 2d] | > 100 | > 10 |
| O=c1[nH]c(=O)c(Cc2cccc(Cl)c2Cl)c([C@H]2CC[C@H](c3ccccc3)CC2)[nH]1 [Compound 3d] | < 50 | < 5 |

| Compound | Ki [1] [nM] | Ki [2] [nM] |
| --- | --- | --- |
| O=c1[nH]c(=O)c(Cc2cccc(C(F)(F)F)n2)c([C@H]2CC[C@H](c3ccccc3)CC2)[nH]1 [Compound 3l] | < 50 | 5 to 10 |
| O=c1[nH]c(C2=CCC(c3ccccc3)CC2)c(Cc2ccccc2)c(=O)[nH]1 (stereo not shown) [Compound 2a, 5-Benzyl-6-(4-phenylcyclohex-1-enyl)-1H-pyrimidine-2,4-dione] | > 100 | > 10 |
| Cc1ccnc(Cc2c(=O)[nH]c(=O)[nH]c2[C@H]2CC[C@H](c3ccccc3)CC2)c1 [Compound 3q] | < 50 | > 10 |
| O=c1[nH]c(=O)c(Cc2ccccc2)c([C@H]2CC[C@H](c3ccccc3)CC2)[nH]1 [Compound 3a, (E)-5-Benzyl-6-(4-phenylcyclohexyl)-1H-pyrimidine-2,4-dione] | < 50 | < 5 |
| O=c1[nH]c(=O)c(Cc2cccc(F)c2F)c([C@H]2CC[C@H](c3ccccc3)CC2)[nH]1 [Compound 3z] | < 50 | < 5 |
| Cc1cccc(Cc2c(=O)n(C)c(=O)[nH]c2[C@H]2CC[C@H](c3ccccc3)CC2)c1 [Compound 13a, (E)-3-Methyl-5-(3-methylbenzyl)-6-(4-phenylcyclohexyl)-1H-pyrimidine-2,4-dione] | < 50 | 5 to 10 |
| Cc1cccc(Cc2c(C3=CCC(c4ccccc4)CC3)[nH]c(=O)[nH]c2=O)c1 (stereo not shown) [Compound 2b] | 50 to 100 | 5 to 10 |
| Cc1cccc(Cc2c(=O)n(CCN(C)C)c(=O)[nH]c2[C@H]2CC[C@H](c3ccccc3)CC2)c1 [Compound 13b] | > 100 | > 10 |
| Cc1cccc(Cc2c(=O)[nH]c(=O)[nH]c2[C@H]2CC[C@H](c3ccccc3)CC2)c1 [Compound 3h, (E)-5-(3-Methylbenzyl)-6-(4-phenylcyclohexyl)-1H-pyrimidine-2,4-dione] | < 50 | < 5 |
| Cc1cccc(Cc2c(=O)[nH]c(=S)[nH]c2[C@H]2CC[C@H](c3ccccc3)CC2)c1 [Compound 12g, (E)-6-(4-Phenylcyclohexyl)-2-thioxo-5-(3-methylbenzyl)-2,3-dihydro-1H-pyrimidin-4-one] | > 100 | > 10 |
| O=c1[nH]c(=O)c(Cc2ccccn2)c([C@H]2CC[C@H](c3ccccc3)CC2)[nH]1 [Compound 3p] | > 100 | > 10 |
| O=c1[nH]c(=O)c(Cc2ncccc2Cl)c([C@H]2CC[C@H](c3ccccc3)CC2)[nH]1 [Compound 3m] | > 100 | > 10 |
| COCCn1c(=O)[nH]c([C@H]2CC[C@H](c3ccccc3)CC2)c(Cc2cccc(C(F)(F)F)c2)c1=O [Compound 13g, (E)-3-(2-Methoxy-ethyl)-6-(4-phenyl-cyclohexyl)-5-(3-trifluoromethyl-benzyl)-1H-pyrimidine-2,4-dione] | > 100 | > 10 |
| O=c1[nH]c(=O)c(Cc2cc(Cl)ccc2Cl)c([C@H]2CC[C@H](c3ccccc3)CC2)[nH]1 [Compound 3g] | < 50 | < 5 |
| COc1ccccc1Cc1c(=O)[nH]c(=O)[nH]c1[C@H]1CC[C@H](c2ccccc2)CC1 [Compound 3u] | 50 to 100 | < 5 |
| O=c1[nH]c(=O)c(Cc2ncccn2)c([C@H]2CC[C@H](c3ccccc3)CC2)[nH]1 [Compound 3k] | > 100 | > 10 |
| O=c1[nH]c(=O)c(Cc2ccc(F)c(Cl)c2)c([C@H]2CC[C@H](c3ccccc3)CC2)[nH]1 [Compound 3aa] | < 50 | > 10 |
| O=c1[nH]c(=O)c(Cc2ccccc2)c([C@H]2CC[C@@H](c3ccccc3)CC2)[nH]1 [Compound 3bb] | > 100 | > 10 |
| O=c1[nH]c(=O)c(Cc2cc(C(F)(F)F)ccn2)c([C@H]2CC[C@H](c3ccccc3)CC2)[nH]1 [Compound 3r] | 50 to 100 | > 10 |
